Measured values reported in patent US10300052B2, “Methods for increasing CFTR activity” (THE UAB RESEARCH FOUNDATION, priority 2012, dated 2019).

Legend:
porcine trachea CFTR−/− = assay: μOCT imaging of airway epithelial function in porcine trachea, CFTR-/- animals; details: sequential ivacaftor 10 μM, forskolin 100 nM, acetylcholine 100 μM in bath, 37° C. (FIG. 7G)
Text: FIGS. 7A-7H show the effects of CFTR activators on airway epithelial function in intact porcine trachea by μOCT. FIGS. 7A-7B show representative μOCT images for a CFTR−/− (FIG. 7A) and CFTR+/+ (FIG. 7B) animal. FIGS. 7C-7F, respectively, show ASL depth (FIG. 7C), PCL depth (FIG. 7D), CBF (FIG. 7E) and MCT (FIG. 7F) measurements derived from μOCT images from CFTR−/− and CFTR+/+ animals. FIGS. 7G and 7H show the response of epithelial functional parameters, namely ASL depth and MCT in CFTR−/− (FIG. 7G) and CFTR+/+(FIG. 7H) animals in response to sequential pharmacologic intervention by ivacaftor (10 μM), forskolin (100 nM) and acetylcholine (100 μM).
To further investigate the role of CFTR activators in modulating airway epithelial cell function, CFTR activators were studied in combination with porcine trachea. In this example, porcine trachea from animals having a mutated CFTR (CFTR (−/−) and from animals having a WT-CFTR (CFTR+/+) were evaluated for ASL depth, PCL depth, CBF and MCT. The results are shown in FIGS. 7A-7H.
FIGS. 7G and 7H show the response of epithelial functional parameters, namely ASL depth, CBF and MCT in CFTR−/− and CFTR+/+ animals in response to sequential pharmacologic intervention by ivacaftor (10 μM), forskolin (100 nM) and acetylcholine (100 μM); in this experiment, acetylcholine served as a positive control to induce glandular extrusion in CF tissue). In these experiments, agonists were added to the bath solution and all experiments were conducted under physiological conditions (37° C. and 100% humidity). […] In contrast to FIG. 7G, ASL depth, CBF and MCT were all increased in response to ivacaftor treatment in CFTR+/+ animals, consistent with the results described above for human tissue.
Normal piglet tracheas were obtained from Exemplar Genetics (Sioux Center, Iowa). Tissue were dissected from one-day-old piglets and shipped on wet ice in DMEM. A modified protocol based on airway tissue handling and preparation methods developed by Ballard et al. (Am J Physiol Lung Cell Mol Physiol 298: L270-276, 2010) was employed. Tracheas were immersed in 80 mL Ringer bicarbonate solution (KRB) baths at room temperature and slowly warmed to 37° C. After four hours of pretreatment, the tracheas were removed from the KRB. Accessible mucus and liquid were aspirated from the airway lumens and the tracheal ends were cannulated so that the serosal surface was bathed in KRB [29] without contacting the mucosal surface, as previously described (Ballard et al., Am J Physiol Lung Cell Mol Physiol 298: L270-276, 2010; Martens, et al., Am J Physiol Lung Cell Mol Physiol 301: L236-246, 2011). Tracheas were allowed to equilibrate in KRB bubbled with 95% 02 and 5% CO2 at 37° C. and the luminal side exposed to conditioned air at 100% humidity for 2 hours prior to mOCT imaging (Sleigh et al., Comp Biochem Physiol A Comp Physiol 94: 359-364, 1989).
The μOCT system is a spectral-domain OCT implementation with several improvements to standard OCT that yield high resolution in both lateral and axial directions. The general layout and axial resolution characterization have been described (Liu et al., PLOSOne, 8(1), E54473-2013). A super-continuum source (Fianium SC450) provides the high-bandwidth, short coherence length light necessary for high axial resolution ([…]). A typical OCT system includes an interferometer with the reference and sample arms intersecting at a beamsplitter. The beamsplitter is replaced in μOCT with a 45 degree rod mirror, which apodizes the sample beam by introducing a circular obscuration in the center to achieve a balance of good lateral resolution (2 μm) and long depth of focus (0.2 mm). Custom software is employed to control the galvanometer scanning motors while acquiring spectral data from the line camera. […]

CFTR = biological target: T1, CFTR (Homo sapiens, UniProt P13569); assay: Isc under voltage clamp in normal explanted human trachea; details: ivacaftor 10 μM after amiloride 100 μM and forskolin 100 nM, voltage clamp (FIGS. 3A, 3B)
T1 construct: from tissue; host or cells: normal human trachea/bronchus from donor explant organs
T1 sequence (P13569 whole entry): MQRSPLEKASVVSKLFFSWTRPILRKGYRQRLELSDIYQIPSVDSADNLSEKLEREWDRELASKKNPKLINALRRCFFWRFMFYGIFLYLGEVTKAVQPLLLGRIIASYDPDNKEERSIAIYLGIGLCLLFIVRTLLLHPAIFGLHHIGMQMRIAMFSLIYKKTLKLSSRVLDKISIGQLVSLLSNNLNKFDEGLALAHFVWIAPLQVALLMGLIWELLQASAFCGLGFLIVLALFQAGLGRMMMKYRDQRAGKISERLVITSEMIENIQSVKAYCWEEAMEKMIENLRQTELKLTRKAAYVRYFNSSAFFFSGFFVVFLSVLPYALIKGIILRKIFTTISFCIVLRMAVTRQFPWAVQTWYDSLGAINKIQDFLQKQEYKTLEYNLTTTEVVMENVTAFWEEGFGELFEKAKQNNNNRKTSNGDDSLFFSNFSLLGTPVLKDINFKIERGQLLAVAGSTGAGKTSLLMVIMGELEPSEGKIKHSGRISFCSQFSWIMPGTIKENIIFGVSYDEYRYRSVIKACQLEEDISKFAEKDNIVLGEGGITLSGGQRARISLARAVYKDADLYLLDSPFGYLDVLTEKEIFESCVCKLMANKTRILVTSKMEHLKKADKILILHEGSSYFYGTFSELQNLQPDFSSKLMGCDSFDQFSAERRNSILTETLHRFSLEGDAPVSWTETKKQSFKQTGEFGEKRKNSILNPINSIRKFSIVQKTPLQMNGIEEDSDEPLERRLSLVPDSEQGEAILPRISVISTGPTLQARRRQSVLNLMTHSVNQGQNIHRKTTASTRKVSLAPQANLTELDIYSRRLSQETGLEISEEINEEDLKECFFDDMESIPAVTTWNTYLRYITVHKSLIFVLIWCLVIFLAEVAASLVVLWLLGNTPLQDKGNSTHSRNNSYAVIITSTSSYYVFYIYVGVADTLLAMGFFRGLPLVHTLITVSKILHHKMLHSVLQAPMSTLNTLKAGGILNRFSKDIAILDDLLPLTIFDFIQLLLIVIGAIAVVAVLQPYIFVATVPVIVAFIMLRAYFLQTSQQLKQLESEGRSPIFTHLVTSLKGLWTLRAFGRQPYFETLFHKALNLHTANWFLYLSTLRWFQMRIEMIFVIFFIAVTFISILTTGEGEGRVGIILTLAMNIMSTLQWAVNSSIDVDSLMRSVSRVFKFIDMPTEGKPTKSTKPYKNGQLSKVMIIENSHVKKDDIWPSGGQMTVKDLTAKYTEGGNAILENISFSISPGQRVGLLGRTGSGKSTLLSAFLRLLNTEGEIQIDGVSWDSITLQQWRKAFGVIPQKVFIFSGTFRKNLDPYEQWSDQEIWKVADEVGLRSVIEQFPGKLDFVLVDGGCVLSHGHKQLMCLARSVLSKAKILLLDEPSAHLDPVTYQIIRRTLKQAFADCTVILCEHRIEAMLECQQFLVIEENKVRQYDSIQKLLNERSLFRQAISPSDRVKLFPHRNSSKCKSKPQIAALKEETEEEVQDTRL
Method: Serial addition of amiloride (100 μM), forskolin (100 nM), and ivacaftor (VX-770; 10 μM) or vehicle control is shown, followed by addition of ATP (10 μM), and CFTR Inh-172 (10 μM×2) as control additions.
The change in Isc following addition of ivacaftor (VX-770) or vehicle control is shown. *P<0.05, n=19, 24 samples/condition.
Ivacaftor also potentiated CFTR-dependent current in normal explanted human trachea examined under voltage clamp conditions (FIGS. 3A and B).
Samples of human trachea tissue were obtained from normal donor explant organs not selected for lung transplantation. Lung, mainstem bronchi, and trachea were resected en-bloc, transferred on wet ice, and large airways excised. Airway tissues were then immersed in ice cold DMEM following resection for transfer, then allowed to equilibrate to room temperature prior to mOCT imaging.
Short-circuit current (Isc) was measured under voltage clamp conditions using MC8 voltage clamps and P2300 Ussing chambers (Physiologic Instruments, San Diego, Calif.) as previously described (2). Monolayers were initially bathed on both sides with identical Ringer's solutions containing (in mM) 115 NaCl, 25 NaHCO3, 2.4 KH2PO4, 1.24 K2HPO4, 1.2 CaCl2, 1.2 MgC2, 10 D-glucose (pH 7.4). […] A one-second three-mV pulse was imposed every 10 seconds to monitor resistance calculated using Ohm's law. […]

- CFTR-dependent current (CFTR): potentiated
SMILES: CC(C)(C)c1cc(C(C)(C)C)c(NC(=O)c2c[nH]c3ccccc3c2=O)cc1O [ivacaftor]
- ASL depth response (porcine trachea CFTR−/−): no response
- CBF response (porcine trachea CFTR−/−): no response
- MCT response (porcine trachea CFTR−/−): no response
